US6420419B1, “L-ascorbic acid 2-phosphate zinc salt and process for manufacturing the same” (Showa Denko Kabushiki Kaisha, priority 1997, dated 2002)

Tests used:
[1] = Stability in buffer solution, storage at 50° C. for 476 hours, HPLC; type: physicochemical; details: for Stability (100% = concentration before storage) pH: 8: about 0.1% in 50 mM Tris-HCl, pH: 8, stored at 50° C. for 476 hours; for Stability (100% = concentration before storage) pH: 5: about 0.1% in 50 mM acetic acid-NaOH, pH: 5, stored at 50° C. for 476 hours
Protocol: In the Examples and Test Examples, the analysis of an L-ascorbic acid 2-phosphate salt or an ion thereof was performed using an Ap-containing solution having a known concentration (prepared from L-ascorbic acid 2-phosphate magnesium salt) as a standard by an HPLC method using a Shodex IEC DEAE-825 resin (ammonium acetate 10 mM→1M gradient, detected spectrophotometrically at 265 nm). The elemental analysis was performed by an ICP emission method, flame photometry and an ion chromatography method. Unless otherwise indicated, the reagents used herein were commercially available reagents.
The stability of L-ascorbic acid 2-phosphate zinc salt was compared to that of L-ascorbic acid 2-phosphate magnesium salt. Each salt was dissolved in a buffer solution (50 mM acetic acid-NaOH, pH: 5, or 50 mM Tris-HCl, pH: 8). to a concentration of about 0.1% and stored at 50° C. for 476 hours. The concentrations of the L-ascorbic acid 2-phosphate before and after storage were analyzed by the HPLC method.

B. subtilis (168 strain) = test: Antimicrobial effect, turbidity in NUTRIENT BROTH; type: cell-based; parameters: key: “+” indicates that turbidity increased after incubation; “−” indicates no increase in turbidity; details: 0.1% salt, pH 6.8, about 10^7 cells/ml, 37° C. for 24 hours
Protocol: (§1) To NUTRIENT BROTH (produced by DIFCO), 0.1% of an L-ascorbic acid 2-phosphate salt was added thereto, and the pH was adjusted to 6.8 using hydrochloric acid or sodium hydroxide. Using 5 ml of the medium thus prepared, test bacterium were inoculated in a concentration of about 10^7 cells/ml and incubated in a test tube at 37° C. for 24 hours. […] As a control, the same test was performed using a medium not containing an L-ascorbic acid 2-phosphate salt.

E. coli (K-12 strain) = test: Antimicrobial effect, turbidity in NUTRIENT BROTH; type: cell-based; parameters: key: “+” indicates that turbidity increased after incubation; “−” indicates no increase in turbidity; details: 0.1% salt, pH 6.8, about 10^7 cells/ml, 37° C. for 24 hours
Protocol: as §1

[2] = in water; background statement on conventionally known salts; cited from earlier work
Solubility in water = type: physicochemical
[3] = listed as L-ascorbic acid 2-phosphate zinc salt (Example 2)
[4] = listed as L-ascorbic acid 2-phosphate zinc salt (Example 1)

SMILES	Increase in turbidity after incubation, B. subtilis (168 strain) (B. subtilis (168 strain))	Increase in turbidity after incubation, E. coli (K-12 strain) (E. coli (K-12 strain))	Concentration of aqueous solution that can be formed [2]	further results
O=C1O[C@H]([C@@H](O)CO)C(O)=C1OP(=O)([O-])[O-].[Zn+2] [Example 2, L-ascorbic acid 2-phosphate zinc salt]				Stability (100% = concentration before storage) pH: 8 [1, 3]: 95%; Stability (100% = concentration before storage) pH: 5 [1, 3]: 92%
O=C1O[C@H]([C@@H](O)CO)C(O)=C1OP(=O)([O-])[O-].[Zn+2] [Example 1, L-ascorbic acid 2-phosphate zinc salt]	−	−		Stability (100% = concentration before storage) pH: 8 [1, 4]: 93%; Stability (100% = concentration before storage) pH: 5 [1, 4]: 91%
O=C1O[C@H]([C@@H](O)CO)C(O)=C1OP(=O)([O-])[O-].[Na+].[Na+] [Sodium salt, Sodium L-ascorbic acid 2-phosphate]	+	+	about 30%	
O=C1O[C@H]([C@@H](O)CO)C(O)=C1OP(=O)([O-])[O-].[Mg+2] [L-ascorbic acid 2-phosphate magnesium salt]	+	+	< 30%	Stability (100% = concentration before storage) pH: 8 [1]: 95%; Stability (100% = concentration before storage) pH: 5 [1]: 82%
O=C1O[C@H]([C@@H](O)CO)C(O)=C1OP(=O)([O-])[O-].[Zn+2] [L-ascorbic acid 2-phosphate zinc salt]				Concentration of aqueous solution easily formed (Solubility in water): ≥ 50 wt %
